Results on 89 compounds are retold here after PubChem BioAssay AID1645848.

≈ marks a conversion by molar mass, not a printed value.

For the series the following is noted: buffer; pH 7.4; 6.0 h; 150.0 µM.

By kinetic solubility is commonly meant the concentration staying in solution when a stock, usually in DMSO, is diluted into the medium. For the compound `COc1cc(-c2cn(C)c(=O)c3cnccc23)c(OC)cc1CN(C)C`, the solubility (kinetic) is greater than 52 µg/mL.
Compound `O=C(Nc1nc(-c2ccccc2)cs1)c1ccncc1NS(=O)(=O)c1cccc2cccnc12` registered a kinetic solubility of 39.8 µg/mL (≈ 81.6 µM).
Then `CCOc1ccc(CNc2ccc3c(c2)ncn3C)cc1`, with greater than 42 µg/mL.
Take `NC(=O)C1CCN(c2nc(-c3cccc4ccccc34)cs2)CC1`: the kinetic solubility came to 38.3 µg/mL (≈ 114 µM).
For `N#Cc1cc(NC(=O)Nc2nnc(-c3ccncc3)s2)ccc1-c1cn[nH]c1` the value was less than 1 µg/mL; for `NC(=O)C1CCN(c2nc(-c3ccccc3Br)cs2)CC1`, greater than 54 µg/mL.
In turn, `O=C(Cc1nc2ccc(Cl)cc2[nH]1)Nc1ccc(S(=O)(=O)Nc2nccs2)cc1` showed a kinetic solubility of 4.93 µg/mL (≈ 11 µM).
`COc1ccc(C(=O)CCN(C)C)cc1F` displayed a solubility (kinetic) greater than 33 µg/mL.
`COc1cc(Nc2nc(-c3ccncc3)nc3ccccc23)ccc1N1CCN(C)CC1` displayed a solubility (kinetic) greater than 63 µg/mL.
Then `CC1=C(C(=O)Nc2nncs2)C2(CCCC2)N=C(Nc2nc3ccccc3o2)N1`, with less than 1 µg/mL; and `Cc1ccc(-c2cc(C(=O)Nc3ccncc3)c3ccccc3n2)cc1`, with less than 1 µg/mL; and `CCN(CCN(C)C)C(=O)C1CCN(S(=O)(=O)c2c(C)noc2/C=C/c2ccccc2F)CC1`, with greater than 49 µg/mL.
On to `Cc1cnc(NC(=O)c2ccc(-c3cccc([N+](=O)[O-])c3)o2)s1`, for which the kinetic solubility was less than 1 µg/mL.
Regarding `CCN(CC)CCNC(=O)C1CCN(c2nn3cc(-c4ccc(F)cc4)nc3s2)CC1`, the solubility (kinetic) was greater than 66 µg/mL.
In the case of `CC(C)(C)CN1CCNc2cc(Nc3ccccc3)ncc2C1`, the solubility (kinetic) stood at 38.5 µg/mL (≈ 124 µM).
Then `CNc1nccc(-c2cccc3ccccc23)n1`, with 4.49 µg/mL (≈ 19.1 µM); and `CCOC(=O)N1CCN(Cc2nc3cc(NC(=O)c4ccc(OC)cc4)ccc3n2C(C)C)CC1`, with 14.7 µg/mL (≈ 30.7 µM).
Regarding `CN(C)c1cccc(-c2ncnc(N3CCC(C(N)=O)CC3)n2)c1`, the solubility (kinetic) was greater than 48 µg/mL.
On to `N#CC1CCN(c2nc(-c3ccc(Br)cc3)cs2)CC1`, for which the kinetic solubility was found to be 1.46 µg/mL (≈ 4.19 µM).
The compound `N#Cc1cccc(Nc2ncc(-c3cccc4ccccc34)o2)c1` yielded a kinetic solubility of less than 1 µg/mL.
`Cn1c2cc(S(C)=O)sc2c2cnn(Cc3cccc(N)c3)c(=O)c21` (centres undefined) had a kinetic solubility greater than 55 µg/mL.
Take `CCn1cc(C(=O)N2CCN(c3cccc(Cl)c3)CC2)c2cc(OC)c(OC)cc2c1=O`: the solubility (kinetic) worked out at 3.32 µg/mL (≈ 7.27 µM).
As for `CC1=C(C(=O)Nc2nncs2)C(c2ccccc2Br)N=C(Nc2nc3ccccc3o2)N1` (centres undefined), the kinetic solubility was less than 1 µg/mL.
Turning to `CC(=O)c1ccc(N2CCN(S(=O)(=O)c3ccc4c(c3)n(C)c(=O)n4C)CC2)cc1`, the kinetic solubility is 2.6 µg/mL (≈ 6.07 µM).
Turning to `O=[S+]([O-])(Nc1ccccc1)c1ccc(NCc2cccc(C(F)(F)F)c2Cl)cc1`, the solubility (kinetic) was less than 1 µg/mL.
For `CCOc1ccc(CCNC(=O)c2cc3c(s2)CCC3)cc1OCC` the value was 4.46 µg/mL (≈ 12.4 µM); for `COC(=O)c1cccc(NC(=O)c2cnc(-c3ccc(F)cc3)nc2-c2ccncc2)c1`, less than 1 µg/mL.
Regarding `CC(C)c1ccccc1-c1ncc(F)c(NCc2ccc(-c3cccnc3)s2)n1`, the kinetic solubility turned out to be 0.132 µg/mL (≈ 0.326 µM).
Then `COc1ccc(C(=O)N[C@@H]2CCC[C@@H]2C(=O)N2CCC(Cc3ccccc3)CC2)cc1`, with 17.9 µg/mL (≈ 42.6 µM); and `NC1CCN(C(=O)C2CCCN(c3nc(-c4ccccc4)nc4c3CCC4)C2)CC1` (centres undefined), with greater than 40 µg/mL; and `COc1ccc(Cl)cc1NC(=O)c1sc2nc3c(cc2c1N)N1CCC3CC1`, with less than 1 µg/mL.
Turning to `CCOC(=O)CCNc1cc(N2CCc3ccccc3CC2)nc(-c2cccnc2)n1`, the solubility (kinetic) turned out to be 4.04 µg/mL (≈ 9.67 µM).
`O=C(c1nc(-c2cccnc2)c2ccccn12)N1CCN(c2ncccn2)CC1` came in with a solubility (kinetic) of 9.57 µg/mL (≈ 24.8 µM).
For `CCOc1ccccc1C(=O)Nc1ncccc1C(=O)Nc1cccc(S(=O)(=O)C(F)(F)F)c1` the value was less than 1 µg/mL; for `CN(C(=O)CNC(=O)c1ccccc1OCC(=O)Nc1ccc(I)cc1)c1ccccc1`, 1.28 µg/mL (≈ 2.35 µM).
Regarding `CC[S+](=O)([O-])Nc1ccccc1C(=O)Nc1nc(-c2ccccc2)cs1`, the solubility (kinetic) turned out to be 40.5 µg/mL (≈ 104 µM).
The compound `Cc1cccc2c(C(=O)O)cc(-c3cccs3)nc12` displayed a solubility (kinetic) greater than 40 µg/mL.
In turn, `CC(C)CNc1ccnc(NCc2csc(-c3ccccc3)n2)n1` came in with a kinetic solubility of 35.9 µg/mL (≈ 106 µM).
`Cc1cc(-c2nnc3n2CCCCC3)c(C)n1-c1cccc(Cl)c1` showed a solubility (kinetic) of 36.5 µg/mL (≈ 107 µM).
As for `CNC(=O)C1=C(C)NC(Nc2nc3ccccc3o2)=NC1c1[nH]ncc1Cl` (centres undefined), the kinetic solubility was greater than 57 µg/mL.
`COc1ccc(-n2cnc3cc(C(=O)N4CCCCC4)ccc32)cc1` came in with a solubility (kinetic) greater than 50 µg/mL.
In turn, `COc1ccnc(NC(=S)N2CCN(c3cccc(C(F)(F)F)c3)CC2)c1` displayed a solubility (kinetic) of 13 µg/mL (≈ 32.7 µM).
Consider `COc1ccc2c(ccn2CCC(=O)Nc2ccc3c(c2)C(=O)N2CCC[C@H]2C(=O)N3)c1`, for which the solubility (kinetic) is greater than 43 µg/mL.
As for `O=[N+]([O-])c1ccc(CNc2ccc([S+](=O)([O-])Nc3nccs3)cc2)c(O)c1`, the solubility (kinetic) is greater than 60 µg/mL.
Compound `CCCOC(=O)c1ccc(Oc2c(-c3ccc(O)cc3O)n[nH]c2C)cc1` had a kinetic solubility of less than 1 µg/mL.
Compound `FC(F)(F)c1cccc(Sc2nc(-c3ccccc3)nnc2C(F)(F)F)c1` registered a kinetic solubility of less than 1 µg/mL.
For `Fc1cccc(CN2CCNc3cc(Nc4ccccc4)ncc3C2)c1` the value was 27.3 µg/mL (≈ 78.3 µM).
Regarding `O=C(Cc1ccc2ccccc2c1)Nc1ccc(S(=O)(=O)Nc2nccs2)cc1`, the solubility (kinetic) came to 0.228 µg/mL (≈ 0.538 µM). Compared with the last compound, the solubility kinetic is about 120-fold lower.
The compound `O=C(Nc1ccc(Nc2ccncc2)cc1)c1ccc(Nc2ccnc3ccc([N+](=O)[O-])cc23)cc1[N+](=O)[O-]` gave a kinetic solubility of less than 1 µg/mL.
The compound `Clc1ccc(-c2nc(-c3ccc(Br)o3)no2)c(Cl)c1` had a kinetic solubility of less than 1 µg/mL.
For `CC(C)c1ccccc1-c1ncc(F)c(NC(C)(C)c2ccc(-c3cccnc3)cc2)n1` the value was less than 1 µg/mL.
In turn, `COc1cccc(CNc2ccc(S(=O)(=O)Nc3ccccc3)cc2)c1O` returned a kinetic solubility of less than 1 µg/mL.
In turn, `Cn1cc(C2=C(c3cn(CCCSC(=N)N)c4ccccc34)C(=O)NC2=O)c2ccccc21` displayed a solubility (kinetic) of 19.2 µg/mL (≈ 41.9 µM).
Turning to `Fc1ccc(Nc2nc(-c3ccnc(N4CCCCC4)c3)nc3ccccc23)cc1F`, the solubility (kinetic) was less than 1 µg/mL.
As to `COc1ccc(-n2nc(C3CCCN(C(=O)c4cccc(OC)c4)C3)[nH]c2=O)cc1` (centres undefined), the kinetic solubility came out at 22.4 µg/mL (≈ 54.8 µM).
In the case of `CN(C)CCN1C(=O)c2cccc3cc(N)cc(c23)C1=O`, the kinetic solubility was greater than 42 µg/mL.
Take `NC(=O)C1CCN(c2nc(-c3ccc4c(c3)OCCCO4)cs2)CC1`: the solubility (kinetic) turned out to be 34.7 µg/mL (≈ 96.4 µM).
In the case of `O=C(COC(=O)CCC(=O)c1cccs1)NCc1ccco1`, the kinetic solubility was greater than 47 µg/mL.
`CC1=Nc2cc(C(=O)NC3CCCC3)ccc2Sc2ccc(C)cc21` yielded a kinetic solubility of 1.05 µg/mL (≈ 3 µM).
`O=c1[nH]c(C2CCCN(CC3CCCCC3)C2)nn1-c1ccc(Cl)cc1` (centres undefined) displayed a kinetic solubility of less than 1 µg/mL.
For `Cn1nnnc1Sc1ncnc2scc(-c3ccc(F)cc3)c12` the value was 15.3 µg/mL (≈ 44.5 µM).
`O=[S+]([O-])(Nc1cccc2ccccc12)c1ccc(NCc2ccc(Cl)cc2O)cc1` had a kinetic solubility of less than 1 µg/mL.
In turn, `O=[S+]([O-])(Nc1ccc(N2CCNCC2)cc1)c1ccc(NCc2ccc(Br)cc2O)cc1` gave a solubility (kinetic) of 20.1 µg/mL (≈ 38.8 µM).
Then `O=c1c2ccccc2nc(/C=C/c2cccnc2)n1Cc1ccccc1`, with 1.8 µg/mL (≈ 5.29 µM); and `Cc1ccc(S(=O)(=O)Nc2cnccc2C(=O)Nc2nc(-c3cccc(Cl)c3)cs2)cc1`, with less than 1 µg/mL; and `CCc1ccc(CNc2ccc3c(c2)ncn3C(C)(C)C)cc1`, with 10.8 µg/mL (≈ 35.3 µM).
The compound `Cc1cccc(N2CCN(C(=O)c3ccc4c(c3)C(O)CCCCCN4C)CC2)c1` (centres undefined) had a solubility (kinetic) of 14.8 µg/mL (≈ 36.3 µM).
As to `COc1ccc(S(=O)(=O)N(CC(=O)Nc2ccc(C)cc2)c2ccc(C)cc2)cc1OC`, the solubility (kinetic) is less than 1 µg/mL.
Regarding `O=C(Nc1nnc(-c2ccco2)o1)c1ccc(Cl)cc1`, the kinetic solubility is 28.2 µg/mL (≈ 97.3 µM).
Turning to `CNc1ncc(-c2cccc3ccccc23)o1`, the solubility (kinetic) turned out to be 25.4 µg/mL (≈ 113 µM).
For `CCC(=O)NC(c1ccco1)c1cc(Cl)c2cccnc2c1O` (centres undefined) the value was less than 1 µg/mL; for `COCCNC(=O)c1ccc(Cn2c(=S)[nH]c3cc4c(cc3c2=O)OCO4)cc1`, 6.98 µg/mL (≈ 16.9 µM); for `Nc1nccc2c1ncn2[C@@H]1C=C(CO)[C@@H](O)[C@H]1O`, greater than 39 µg/mL.
`Clc1ccccc1CSc1nc2ncc(Br)cc2[nH]1` showed a solubility (kinetic) of less than 1 µg/mL.
Turning to `C#CCNC(=O)c1nc(-c2cccnc2)c2ccccn12`, the solubility (kinetic) is greater than 61 µg/mL.
As for `O=C(c1ccc2c(c1)OCO2)N1CCC(Cc2nc(-c3cnccn3)no2)CC1`, the solubility (kinetic) was greater than 39 µg/mL.
Compound `O=S(=O)(Nc1cccc(C(F)(F)F)c1)c1ccc(NS(=O)(=O)c2ccc3c(c2)OCCO3)cc1` came in with a kinetic solubility of less than 1 µg/mL.
`Cn1ccc2cc(-c3csc(N4CCC(C(N)=O)CC4)n3)ccc21` came in with a kinetic solubility of 32.9 µg/mL (≈ 96.7 µM).
In turn, `Cc1cccc(S(=O)(=O)Nc2cnccc2C(=O)Nc2nc(-c3ccccc3)cs2)c1` returned a kinetic solubility of 21.8 µg/mL (≈ 48.3 µM).
`C=C[C@]1(C)C[C@@H](OC(=O)CSC(C)(C)CNC(=O)[C@H](N)C(C)C)[C@]2(C)[C@H](C)CC[C@]3(CCC(=O)[C@H]32)[C@@H](C)[C@@H]1O` returned a kinetic solubility of 36.6 µg/mL (≈ 64.8 µM).
The compound `NC(=O)NCC(=O)N[C@H]1CC[C@H](Nc2nccc(-c3ccncc3)n2)C1` came in with a kinetic solubility greater than 35 µg/mL.
`Cc1nn2c(c1-c1ccccc1-c1ccccc1)N(Cc1ccc(O)cc1)CCC2` came in with a kinetic solubility of less than 1 µg/mL.
Turning to `C[C@@H](O)CNC(C)(C)CC(=O)N[C@@H]1CCc2ccccc2N(Cc2ccc(-c3ccccc3-c3nn[nH]n3)cc2)C1=O`, the solubility (kinetic) is greater than 84 µg/mL.
On to `Cc1c(NC2=C(Cl)C(=O)N(c3ccccc3)C2=O)c(=O)n(-c2ccccc2)n1C`, for which the solubility (kinetic) is less than 1 µg/mL.
`COc1cc2nc(N3CCCC3)nc(NCCCCCN3CCCC3)c2cc1OC` came in with a solubility (kinetic) greater than 61 µg/mL.
In the case of `Cc1ccccc1C(=O)Nc1sc2c(c1C(=O)NCc1ccco1)CCC(C(C)(C)C)C2` (centres undefined), the kinetic solubility is less than 1 µg/mL.
Turning to `Cc1cc(NS(=O)(=O)c2ccc(NC(=O)Cc3ccc(Cl)c(Cl)c3)cc2)no1`, the kinetic solubility is greater than 65 µg/mL.
Consider `CCN(CC)S(=O)(=O)c1ccc2oc(C(=O)Nc3ccc(Br)cc3F)c(C)c2c1`, for which the solubility (kinetic) is less than 1 µg/mL.
As for `CC(=O)c1ccc(N2CCN(c3ccc(NC(=O)c4ccc(F)cc4)cc3C(=O)O)CC2)cc1`, the solubility (kinetic) was less than 1 µg/mL.
